This experiment has as its system BDF1 mice, Adenocarcinoma 755 s.c., tumor weight T/C. As to the kind of experiment: NCI In Vivo Anticancer Drug Screen. Data for tumor model Adenocarcinoma 755 (subcutaneous) in B6D2F1 (BDF1) mice. The settings on record: endpoint: mean tumor weight, higher = larger tumour. The essentials: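 Compound activity was tested in mice carrying transplanted tumors. Survival or tumor size was measured, and each value is the treated-group measurement divided by that of the vehicle-treated control group (T/C).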

“And” between values parts separate entries of the source, which are not always exact repeats. Equal entries are not always repeated.

What is called T/C is the result in the treated group divided by that in the control group, in per cent. For `CC(=O)OCC(=O)[C@@]1(O)CC[C@H]2[C@@H]3C[C@H](C)C4=CC(=O)C=C[C@]4(C)[C@H]3[C@@H](O)C[C@@]21C`, the T/C was 70 % of control (dose: 2.5 mg/kg/injection, schedule: Q01DX011 (sc), vehicle: steriod suspending solution); 77 % of control (dose: 3.8 mg/kg/injection, schedule: Q01DX011 (sc), vehicle: steriod suspending solution); 57 % of control (dose: 5.0 mg/kg/injection, schedule: Q01DX011 (sc), vehicle: steriod suspending solution); 68 % of control (dose: 7.5 mg/kg/injection, schedule: Q01DX011 (sc), vehicle: steriod suspending solution); 35 % of control (dose: 10.0 mg/kg/injection, schedule: Q01DX011 (sc), vehicle: steriod suspending solution); 37 % of control (dose: 15.0 mg/kg/injection, schedule: Q01DX011 (sc), vehicle: steriod suspending solution). The T/C reads like this: (dose: 20.0 mg/kg/injection, schedule: Q01DX011 (sc), vehicle: steriod suspending solution) 25 % of control and 40 % of control; (dose: 40.0 mg/kg/injection, schedule: Q01DX011 (sc), vehicle: steriod suspending solution) 14 % of control and 20 % of control; (dose: 80.0 mg/kg/injection, schedule: Q01DX011 (sc), vehicle: steriod suspending solution) 6 % of control.
For `OCC1CCC(n2cnc3c(=S)nc[nH]c32)C1` (configuration not stated), the T/C (dose: 50.0 mg/kg/injection, schedule: Q01DX011 (ip), vehicle: carboxymethylcellulose (CMC)) was 89 % of control; the T/C (dose: 100.0 mg/kg/injection, schedule: Q01DX011 (ip), vehicle: carboxymethylcellulose (CMC)) was 88 % of control; the T/C (dose: 200.0 mg/kg/injection, schedule: Q01DX011 (ip), vehicle: carboxymethylcellulose (CMC)) is 48 % of control.
On to `O=CCC(O)C(O)C(O)CO` (configuration not stated), for which the T/C (dose: 125.0 mg/kg/injection, schedule: Q01DX011 (ip), vehicle: carboxymethylcellulose (CMC)) was 106 % of control and 122 % of control.
On to `Cn1c(=O)c2c(nc(N/N=C/c3ccccc3C(=O)O)n2C)n(C)c1=O`, for which the T/C was 76 % of control (dose: 30.0 mg/kg/injection, schedule: Q01DX011 (ip), vehicle: carboxymethylcellulose (CMC)); 69 % of control (dose: 60.0 mg/kg/injection, schedule: Q01DX011 (ip), vehicle: carboxymethylcellulose (CMC)); 74 % of control (dose: 120.0 mg/kg/injection, schedule: Q01DX011 (ip), vehicle: carboxymethylcellulose (CMC)); 62 % of control (dose: 240.0 mg/kg/injection, schedule: Q01DX011 (ip), vehicle: carboxymethylcellulose (CMC)).

The record behind these values is PubChem BioAssay AID180 (DTP/NCI, 2004).
